Experimental data as given in patent US20050009732A1, “Method of treatment and agents useful for same” (Medvet Science Pty Ltd., priority 2003, published 2005).
Starred links: 1 amine or outer side, 2 acyl side, 3 side chain; linkers in the order of their positions; H or OH if unused. Positions of bridges follow the written chain, without caps; N, C: chain ends. Non-standard residues stand in square brackets, D forms with d. Residues, ends and D or L forms follow the SMILES beside them. Chains are numbered I, II in the order given. Actinocin(9to1) = Cc1c2oc3c(C)ccc(C(=O)[*:1])c3nc-2c(C(=O)[*:2])c(N)c1=O; NMeV = CN[C@H](C(=O)O)C(C)C; Sar = CNCC(=O)O

What was measured:
Type in all cases: cell-based, human
[1] = test system: intracellular Ca2+ mobilization in MCF-7 cells; assay: Measurement of [Ca2+]i in Fluo-3 loaded MCF-7 cells; conditions: for effect on [Ca2+]i when added alone: S1P 100 nM, E2-BSA 1 μM; for effect on E2-induced rise of [Ca2+]i: pretreatment then E2 (DMS 10 μM 30 min; ICI 10 μM; BHQ 100 nM; EGTA 2 mM; 2-APB 75 μM)
Description: The fluorescence of the cells was monitored at an excitation wavelength of 490 nm and an emission wavelength of 525 nm. Each recording was calibrated by determining the maximal uptake of calcium (Fmax) in the presence of 0.1% Triton X as well as the level of autofluorescence (Fmin), after quenching Fluo-3/AM fluorescence with 1 mM Mn2^+.

[2] = test system: SK activity in MCF-7 cells; assay: SK activity assay in MCF-7 cells; conditions: for effect on E2-mediated SK activation: pretreatment (ICI 10 μM 1 h; PTX 50 ng/ml 16 h) then 10 nM E2
Description: (§1) Briefly, after desired treatments the cells were washed with ice-cold PBS, scraped from the culture dishes and homogenized in lysis buffer containing 20 mM Tris (pH 7.4), 20% glycerol, 1 mM DTT, 1 mM EDTA, 10 μM MgCl2, 1 mM Na3VO4, 15 mM NaF, 10 μg/ml leupeptin and aprotinin, 1 mM PMSF and 0.5 mM 4-deoxypyridoxine. After centrifugation at 13,000×g for 30 min, SK activity was measured by incubating the cytosolic fraction with 5 μM sphingosine dissolved in 0.1% Triton X-100 and [γ^32P]ATP (1 mM, 0.5 mCi/ml) for 30 min at 37° C. as described previously (Pitson et al, 2000, supra; Xia, P., 1998, supra). The enzyme activity was normalized by total protein concentration of each sample.

[3] = test system: Erk1/2 phosphorylation in MCF-7 cells; assay: Erk1/2 phosphorylation by Western blotting in MCF-7 cells
Description: Cells were harvested and lysed by sonication in lysis buffer containing 50 mM Tris/HCl (pH 7.4), 10% glycerol, 0.5% Triton-X-100, 150 mM NaCl, 1 mM dithiothreitol, 2 mM Na3VO4, 10 mM NaF, 1 mM EDTA and protease inhibitors (Complete; Roche Molecular Biochemicals). Protein concentrations of the cell lysates were determined with a Bio-Rad Dc protein assay kit (Bio-Rad Laboratories, CA). Aliquots of cell lysates containing 30-50 μg of proteins were resolved by 12% SDS-PAGE and transferred to Hybond-P membranes (Amersham Biosciences, Inc.). The membranes were then probed with appropriate antibodies according to standard method as described previously (Pitson, S. M., 2000, supra). The immunocomplexes were detected with an enhanced chemiluminescence PLUS kit (Amersham Pharmacia Biosciences) and by using Typhoon 9410 Variable Mode Imager (Amersham Pharmacia Biotechnologies).

[4] = test system: SK activity in MDA-MB-231 cells; assay: SK activity assay in MDA-MB-231 cells; conditions: 10 nM E2, 15 min or 6 hours
Description: as §1

[5] = test system: MCF-7 cells; assay: Cell growth assay (MTS) in MCF-7 cells; conditions: 10 nM E2, in the absence of serum
Description: To assess cell proliferation, we used the CellTiter 96 AQueous proliferation assay (Promega Corp.) that is based on metabolic conversion of a tetrazolium compound MTS to a colored product by living cells as described in the manufacturer's protocols. Cells (4×10^3 cell/well) were seeded in 4 to 6 replicates into 96-well plates and incubated at 37° C. in 5% CO2 with or without E2 (10 nM) in phenol-red free media for a desired time period. The medium was changed every 2-3 days. The absorbance intensity of the MTS product is directly proportional to the number of viable cells in culture when cell number is between 2000 and 200 000, otherwise the exponential dependence was determined. Total cell numbers were calculated based on calibration curves.

[6] = test system: MCF-7 cells; assay: Focus formation assay in MCF-7 cells; conditions: 10 nM E2, 10-day culture
Description: MCF-7 cells were seeded into 24-well plastic tissue culture plates at a density of 1×10^5 cells/ml/well, and maintained in phenol-red free media containing 10% FCS until the cells reached confluent. The cells were then refed at 24 h before first treatment with or without 10 nM E2 and then every 2-3 days thereafter with 1% FCS medium. After 5, 10 and 14 days the cultures were photographed and number of foci were counted. For colony assay, cells (1×10^4) suspended in 2 ml of 0.36% agar (Becton Dickinson, Sparks, MD) with phenol-red free growth medium were added on a base layer of 0.72% agar containing culture medium as described previously (Xia, P., Gamble, J. R., Wang, L., Pitson, S. M., Moretti, P. A., Wattenberg, B. W., D'andrea, R. J., and Vadas, M. A. (2000) Curr. Biol., 10: 1527-1530). After 14 days of incubation, the colonies were stained with MTT and counted. All experiments were done at least three times using triplicates per experimental point. Average was assessed by counting the number of colonies under low magnification (×20) at four points on each well.

Compound: CCCCCCCCCCCCC/C=C/[C@@H](O)[C@@H](N)COP(=O)(O)O [S1P, sphingosine-1-phosphate]
- effect on [Ca2+]i when added alone [1]: resulted in an increase

Compound: 4-hydroxytamoxifen [OH-Tam]
- effect on E2-induced rise of [Ca2+]i [1]: not prevented

Compound: C[C@]12CC[C@@H]3c4ccc(O)cc4C[C@@H](CCCCCCCCC[S+]([O-])CCCC(F)(F)C(F)(F)F)[C@H]3[C@@H]1CC[C@@H]2O (stereo partly drawn) [ICI 182,780]
- effect on E2-mediated SK activation ([2]; MCF-7 cells): no influence
- effect on E2-induced rise of [Ca2+]i [1]: not prevented

Compound: O=C(O)CN(CCOCCOCCN(CC(=O)O)CC(=O)O)CC(=O)O [EGTA]
- effect on E2-induced rise of [Ca2+]i [1]: slightly decreased

Compound: pertussis toxin
- effect on E2-mediated SK activation ([2]; MCF-7 cells): strongly abrogated

Compound: NCCOB(c1ccccc1)c1ccccc1 [2-APB, 2-Aminoethoxydiphenyl borate]
- effect on E2-induced rise of [Ca2+]i [1]: unable to effectively abolish

Compound: COc1cccc(-c2cc(=O)c3ccccc3o2)c1N [PD098095]
- effect on E2-promoted phosphorylation of Erk1/2 ([3]; 100 μM pretreatment 30 min, 10 nM E2): blocked

Compound: 17β-estrodiol [E2]
- SK activity after additional dose of E2 ([2]; MCF-7 cells pretreated with E2 for 16 h, pulsed with additional 10 nM E2): additive increase
- prolonged effect on SK activity ([2]; MCF-7 cells, 10 nM E2, after 6 hours, remained more than 24 hours): significant increase
- maximum SK activity ([2]; MCF-7 cells, 10 nM E2, within 15 min): 240±25 % of basal
- concentration at which the E2-induced SK activity reaches a maximum ([2]; MCF-7 cells, increasing doses, 15 min): 1 µM
- SK activity [4]: No increased activity
- effect on cell growth [5]: stimulated cell growth
- time to maximal level of [Ca2+]i ([1]; E2 1 nM): 30 ± 10 s
- foci formation [6]: able to form solid cell foci
- effect on Erk 1/2 activity ([3]; 10 nM E2): significant increase
- time of maximal Erk 1/2 activity ([3]; 10 nM E2, basal levels by 60 min): ≤ 15 min

Compound: CC/C(=C(\c1ccccc1)c1ccc(OCCN(C)C)cc1)c1ccccc1 [Tamoxifen]
- effect on E2-mediated SK activation ([2]; MCF-7 cells): no influence

Compound: Cc1c2oc3c(C)ccc(C(=O)N[C@@H]4C(=O)N[C@H](C(C)C)C(=O)N5CCC[C@H]5C(=O)N(C)CC(=O)N(C)[C@@H](C(C)C)C(=O)O[C@@H]4C)c3nc-2c(C(=O)N[C@@H]2C(=O)N[C@H](C(C)C)C(=O)N3CCC[C@H]3C(=O)N(C)CC(=O)N(C)[C@@H](C(C)C)C(=O)O[C@@H]2C)c(N)c1=O [actinomycin D] (I: T[dV]P[Sar][NMeV] / II: T[dV]P[Sar][NMeV]; ester I:1-I:C, II:1-II:C; linker I:N-II:N via Actinocin(9to1))
- effect on first peak of E2-induced SK activity ([2]; MCF-7 cells, 1 μM actinomycin D pretreatment 4 h, 10 nM E2): no overt effect
- effect on delayed E2-induced activation of SK ([2]; MCF-7 cells, 1 μM actinomycin D, 10 nM E2 prolonged time course): abrogated

Compound: CCCCCCCCCCCCCC(=O)O[C@@H]1[C@@H](C)[C@@]2(O)[C@@H](C=C(CO)C[C@]3(O)C(=O)C(C)=C[C@@H]23)[C@@H]2C(C)(C)[C@]12OC(C)=O [PMA, phorbol 12-myristate 13-acetate]
- increase in SK activity over basal levels ([2]; PMA 100 ng/ml, 30 min, SK and empty-vector transfected MCF-7 cells): approximately 2 fold

Compound: CC(C)(C)c1cc(O)ccc1O [BHQ, tert-butylhydroquinone]
- effect on E2-induced rise of [Ca2+]i [1]: strongly reduced

Compound: 17β-estrodiol-BSA [E2-BSA]
- effect on [Ca2+]i when added alone [1]: same extent as E2
